From the supplement of paper PMC10307832

Legend:
Experiment in all cases: relative viability (nuclei count vs DMSO), 5 days (fraction); higher = more cells survive
[1] = compound: CC1=C(C(=NN1)C)CC2=C(C3=C(S2)N(C(=O)N(C3=O)C)CC(C)C)C(=O)N4C[C@@H](CO4)O + CC1(C)CCC(c2ccc(Cl)cc2)=C(CN2CCN(c3ccc(C(=O)NS(=O)(=O)c4ccc(N[C@H](CCN5CCOCC5)CSc5ccccc5)c(S(=O)(=O)C(F)(F)F)c4)cc3)CC2)C1 [Navitoclax] (partner 0.5 µM)
Procedure, shortened: (§1)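 Relative viability was taken as the ratio of nuclei in treated wells to nuclei in vehicle wells. Lung cancer cell lines in 1536-well plates received compounds by pin tool one day after seeding, either one drug alone or a fixed anchor-drug dose plus five library-drug doses (not always all listed) in √10 steps. Nuclei were counted on 4× images after 5 days of treatment, and values are medians of duplicate plates.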

[2] = compound: Cc1ccccc1C(C(=O)NC1CCCCC1)N(C(=O)Cn1ccnc1C)c1cccc(F)c1 [IDH-C35]
Procedure, shortened: (§2)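 Lung cancer cell lines in 1536-well plates were exposed by pinning to five library-drug doses (not always all listed) √10 apart, following an overnight hold at 37 °C. MetaXpress counted Hoechst-stained nuclei from 4× images taken after 5 days without medium change. Viability is the median ratio of treated-well to vehicle-well nuclei across plates. Plates required control CV below 25% and at least one doubling.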

[3] = compound: CC1=C(C(=NN1)C)CC2=C(C3=C(S2)N(C(=O)N(C3=O)C)CC(C)C)C(=O)N4C[C@@H](CO4)O
Procedure, shortened: as §2

[4] = compound: Cc1ccccc1C(C(=O)NC1CCCCC1)N(C(=O)Cn1ccnc1C)c1cccc(F)c1 [IDH-C35] + N=C(N)NC(=N)NCCc1ccccc1 [Phenformin] (partner 250 µM)
Procedure, shortened: as §1

Row | Cell Line | relative viability ([1]; first compound 0.0025 µM) | relative viability ([1]; first compound 0.007906 µM) | relative viability ([1]; first compound 0.025 µM) | relative viability ([1]; first compound 0.07906 µM) | relative viability ([1]; first compound 0.25 µM) | relative viability ([2]; 0.08 µM) | relative viability ([2]; 0.253 µM) | relative viability ([2]; 0.8 µM) | relative viability ([2]; 2.53 µM) | relative viability ([2]; 8 µM) | relative viability ([3]; 0.0025 µM) | relative viability ([3]; 0.007906 µM) | relative viability ([3]; 0.025 µM) | relative viability ([3]; 0.07906 µM) | relative viability ([3]; 0.25 µM) | relative viability ([4]; first compound 0.08 µM) | relative viability ([4]; first compound 0.253 µM) | relative viability ([4]; first compound 0.8 µM) | relative viability ([4]; first compound 8 µM) | relative viability ([4]; first compound 2.53 µM)
1 | Calu-6 | 0.925 | 0.827 | 0.805 | 0.906 | 0.892 | 1.05 | 0.968 | 1.03 | 0.997 | 0.937 | 1.04 | 1.01 | 0.982 | 1.03 | 1.03 | – | – | – | – | –
2 | LC-2-ad | 0.459 | 0.461 | 0.463 | 0.481 | 0.58 | 0.993 | 1 | 0.966 | 0.701 | 0.898 | 0.982 | 0.93 | 0.956 | 1.04 | 1.04 | 0.571 | 0.585 | 0.603 | 0.604 | –
3 | CAL-12T | 1.27 | 1.39 | 1.03 | 1.37 | 1.33 | 0.982 | 1.04 | 0.982 | 1.05 | 0.979 | 1.03 | 1.03 | 0.958 | 1.12 | 1.13 | 0.546 | 0.618 | 0.556 | 0.498 | 0.589
4 | RERF-LC-KJ | 1.18 | 0.99 | 1.01 | 0.713 | 0.897 | 0.962 | 0.929 | 1.03 | 1.01 | 0.943 | 1.01 | 1.07 | 0.985 | 0.98 | 1.06 | 0.415 | 0.443 | 0.419 | 0.403 | 0.456
5 | NCI-H1650 | 1.37 | 1.22 | 1.2 | 1.27 | 1.21 | 1.01 | 0.986 | 0.928 | 0.923 | 0.839 | 0.986 | 1.07 | 1.11 | 1.14 | 1.21 | 0.486 | 0.423 | 0.436 | 0.379 | 0.462
6 | ABC-1 | – | – | – | – | – | 0.953 | 0.938 | 0.91 | 1.03 | 0.992 | 0.978 | 0.921 | 0.714 | 0.994 | 0.902 | 0.261 | 0.218 | 0.247 | 0.23 | 0.235
7 | NCI-H1299 | 1.08 | 1.04 | 1.08 | 1.05 | 0.987 | 1.04 | 0.952 | 1.01 | 0.991 | 1.01 | 1.01 | 1 | 0.952 | 1.01 | 1.03 | – | – | – | – | –
8 | EBC-1 | 0.473 | 0.426 | 0.485 | 0.498 | 0.494 | 1.05 | 1.01 | 0.992 | 0.981 | 0.96 | 1.01 | 1.07 | 0.868 | 1.08 | 1.05 | – | – | – | – | –
9 | NCI-H2342 | – | – | – | – | – | 1.02 | 0.957 | 0.901 | 0.908 | 0.891 | 1.06 | 0.935 | 1.03 | 0.975 | 0.886 | 0.572 | 0.566 | 0.579 | 0.527 | 0.651
10 | NCI-H650 | – | – | – | – | – | 0.894 | 1.2 | 0.981 | – | 0.962 | 0.987 | 0.91 | 0.869 | 0.919 | 1.06 | 0.453 | 0.465 | 0.505 | 0.421 | –
11 | NCI-H358 | – | – | – | – | – | 0.942 | 0.984 | 0.807 | 0.942 | 0.919 | 1.09 | 0.992 | 1.01 | 1.02 | 0.983 | 0.366 | 0.33 | 0.337 | 0.328 | 0.388
12 | NCI-H1563 | – | – | – | – | – | 0.972 | 0.974 | 1.01 | 0.981 | 0.957 | 1.06 | 1.06 | 0.97 | 1.07 | 0.973 | 0.703 | 0.625 | 0.696 | 0.649 | 0.623
13 | SW 900 | – | – | – | – | – | 0.871 | 0.849 | 0.768 | 0.834 | 0.897 | 1.06 | 1.16 | 0.835 | 0.888 | 0.97 | 0.669 | 0.591 | 0.56 | 0.438 | 0.615
14 | IA-LM | 0.738 | 0.796 | 0.912 | 0.784 | 0.722 | 0.947 | 1.02 | 0.858 | 0.887 | 0.999 | 0.945 | 0.998 | 0.96 | 1.02 | 1.07 | – | – | – | – | –
15 | NCI-H1703 | 1.36 | 1.4 | 0.972 | 0.928 | 0.744 | 0.96 | 1.02 | 0.95 | 0.901 | 0.955 | 1.03 | 0.895 | 0.917 | 0.895 | 0.897 | – | – | – | – | –
16 | LCLC-103H | – | – | – | – | – | 0.968 | 0.957 | 0.933 | 1.02 | 0.913 | 1.1 | 1.06 | 1 | 0.919 | 0.973 | 0.308 | 0.338 | 0.344 | 0.34 | 0.364
17 | NCI-H1648 | – | – | – | – | – | 0.756 | 0.758 | 0.953 | 0.761 | 0.942 | 1.01 | 0.971 | 0.992 | 0.624 | 0.678 | – | – | – | – | –
